One block for each compound: values may come before it.
What was measured:
DBH [1] = molecular target: T1, DBH (Homo sapiens, UniProt P09172); details: cited from earlier work
T1 sequence (P09172 1-617): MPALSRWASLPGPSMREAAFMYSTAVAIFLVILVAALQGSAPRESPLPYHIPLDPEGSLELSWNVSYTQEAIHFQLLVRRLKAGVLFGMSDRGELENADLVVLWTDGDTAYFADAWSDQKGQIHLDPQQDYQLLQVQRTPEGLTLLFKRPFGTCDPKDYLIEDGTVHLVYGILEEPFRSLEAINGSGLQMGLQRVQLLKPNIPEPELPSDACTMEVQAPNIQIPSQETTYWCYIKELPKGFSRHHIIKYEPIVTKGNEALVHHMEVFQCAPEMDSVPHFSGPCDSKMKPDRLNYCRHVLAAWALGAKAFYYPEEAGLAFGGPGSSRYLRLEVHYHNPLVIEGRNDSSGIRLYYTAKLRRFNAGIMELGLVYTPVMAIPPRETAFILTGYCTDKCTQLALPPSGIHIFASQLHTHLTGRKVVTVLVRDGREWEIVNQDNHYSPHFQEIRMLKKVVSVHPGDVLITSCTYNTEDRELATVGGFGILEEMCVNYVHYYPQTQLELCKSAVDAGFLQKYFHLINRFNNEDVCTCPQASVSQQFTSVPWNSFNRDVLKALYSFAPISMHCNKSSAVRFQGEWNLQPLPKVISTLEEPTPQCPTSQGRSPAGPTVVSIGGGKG

DBH [2] = molecular target: T2, DBH (Bos taurus, UniProt P15101); assay: in vitro DBH inhibition, conversion of tyramine to octopamine in the presence of DBH (spectrophotometric at 330 nm); format: biochemical; details: for IC50: molar concentration of compound at which DBH activity was halved; for DBH inhibition: @ 10^-4 (molar concentration)
T2 sequence (P15101 1-610): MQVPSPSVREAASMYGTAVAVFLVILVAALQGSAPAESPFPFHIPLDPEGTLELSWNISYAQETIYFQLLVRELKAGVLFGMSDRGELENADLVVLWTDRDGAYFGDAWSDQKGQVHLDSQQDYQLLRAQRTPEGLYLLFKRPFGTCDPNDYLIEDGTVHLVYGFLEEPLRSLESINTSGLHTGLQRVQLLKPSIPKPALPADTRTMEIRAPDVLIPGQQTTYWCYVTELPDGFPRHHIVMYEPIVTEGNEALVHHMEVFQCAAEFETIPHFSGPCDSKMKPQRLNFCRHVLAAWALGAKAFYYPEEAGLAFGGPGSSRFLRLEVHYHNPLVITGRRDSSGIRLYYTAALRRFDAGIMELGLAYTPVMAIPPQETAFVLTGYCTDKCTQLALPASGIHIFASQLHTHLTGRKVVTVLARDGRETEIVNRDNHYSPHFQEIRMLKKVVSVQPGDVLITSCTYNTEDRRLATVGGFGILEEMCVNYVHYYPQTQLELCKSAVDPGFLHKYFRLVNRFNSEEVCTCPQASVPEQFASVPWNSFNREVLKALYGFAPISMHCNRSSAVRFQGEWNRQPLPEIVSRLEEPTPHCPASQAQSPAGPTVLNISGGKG
Method: Listed in Table I are Formula II compounds that were tested for in vitro DBH inhibition by a standard procedure for assaying conversion of tyramine to octopamine in the presence of DBH. J. J. Pisano, et al., Biochim. Biophys. Acta, 43, 566-568 (1960). Octopamine was assayed following sodium periodate oxidation to p-hydroxybenzaldehyde by measuring spectrophotometric absorbance at 330 nm. In Table I, inhibition is given in molar concentration of compound at which DBH activity was halved (IC50). Fusaric acid, by this test has an IC50 of 8×10^-7 M.

[3] = mean arterial blood pressure in spontaneously hypertensive rats; format: in vivo; details: 50 mg/kg intraperitoneally
Method: Further, spontaneously hypertensive rats were treated with 5-benzyl-2-mercaptoimidazole at a dose of 50 mg/kg intraperitoneally, and mean arterial blood pressure was monitored for 260 minutes using indwelling cannulae in the tail arteries. […] The maximal blood pressure reduction was approximately 25 mmHg.

[4] = Ehrreich et al.; cited from earlier work
[5] = Teresawa et al.; cited from earlier work

Compound: O=C(O)c1ccc(CCCCCl)cn1 [5 (4 chlorobutyl) picolinic acid]
- DBH inhibition (in words) (DBH [1]): inhibit DBH

- IC50 (DBH [2]): 400 µM
Compound: Oc1ccc(CCc2cnc(S)[nH]2)cc1 [5-(2-(4-Hydroxyphenyl)ethyl)-2-mercaptoimidazole]

- DBH inhibition (DBH [2]): 8.4%
Compound: COc1ccc(CCc2cnc(S)[nH]2)cc1 [5-(2-(4-Methoxyphenyl)ethyl)-2-mercaptoimidazole]

- IC50 (DBH [2]): 17 µM
Compound: Sc1ncc(CCc2ccccc2)[nH]1 [5-(2-Phenylethyl)-2-mercaptoimidazole]

Compound: O=C(O)c1ccc(CCC(Br)CBr)cn1 (centres unmarked) [5-(3,4-dibromobutyl)picolinic acid]
- DBH inhibition (in words) (DBH [1]): DBH inhibitors

- DBH inhibition (DBH [2]): 29%
Compound: Oc1ccc(CCCc2cnc(S)[nH]2)cc1 [5-(3-(4-Hydroxyphenyl)propyl)-2-mercaptoimidazole]

- DBH inhibition (DBH [2]): 39%
Compound: COc1ccc(CCCc2cnc(S)[nH]2)cc1 [5-(3-(4-Methoxyphenyl)propyl)-2-mercaptoimidazole]

- IC50 (DBH [2]): 10 µM
Compound: Sc1ncc(CCCc2ccccc2)[nH]1 [5-(3-Phenylpropyl)-2-mercaptoimidazole]

- DBH inhibition (DBH [2]): 24%
Compound: Oc1ccc(CCCCc2cnc(S)[nH]2)cc1 [5-(4-(4-Hydroxyphenyl)butyl)-2-mercaptoimidazole]

- IC50 (DBH [2]): 100 µM
Compound: COc1ccc(CCCCc2cnc(S)[nH]2)cc1 [5-(4-(4-Methoxyphenyl)butyl)-2-mercaptoimidazole]

- IC50 (DBH [2]): 100 µM
Compound: Sc1ncc(-c2ccc(Cl)cc2)[nH]1 [5-(4-Chlorophenyl)-2-mercaptoimidazole]

Compound: COc1ccc(Cc2cnc(S)[nH]2)cc1 [5-(4-Methoxybenzyl)-2-mercaptoimidazole]
- DBH inhibition (DBH [2]): 36%

- DBH inhibition (DBH [2]): 38%
Compound: COc1ccc(-c2cnc(S)[nH]2)cc1 [5-(4-Methoxyphenyl)-2-mercaptoimidazole]

- IC50 (DBH [2]): 100 µM
Compound: Sc1ncc(CCCCc2ccccc2)[nH]1 [5-(4-Phenylbutyl)-2-mercaptoimidazole]

Compound: CN(C)C(=S)SCc1ccc(C(=O)O)nc1 [5-(dimethyldithiocarbamoylmethyl)picolinic acid]
- DBH inhibition (in words) (DBH [1]): DBH inhibitors

- IC50 (DBH [2]): 5500 µM
Compound: Sc1nc(-c2ccccc2)c[nH]1 [5-Phenyl-2-mercaptoimidazole]

Compound: Sc1ncc(Cc2ccccc2)[nH]1 [5-benzyl-2-mercaptoimidazole]
- time to significant blood pressure reductions vs vehicle-treated controls ([3]; indwelling cannulae in tail arteries): ≤ 30 min
- maximal blood pressure reduction ([3]; monitored for 260 minutes): approximately 25 mmHg
- time of lowest blood pressure ([3]; monitored for 260 minutes): exhibited their lowest blood pressures when monitoring was discontinued

Compound: NOCc1ccccc1 [Benzyloxyamine]
- DBH inhibition (in words) (DBH [1]): apparently act as competitive inhibitors

Compound: CCCCc1ccc(C(N)=O)nc1 [Bupicomide, 5-(n-butyl)picolinamine]
- antihypertensive or vasodilator activity [4]: has antihypertensive activity
- DBH inhibition (in words) (DBH [1]): DBH inhibitor

Compound: NCCc1ccc(O)c(O)c1 [DA, dopamine]
- antihypertensive or vasodilator activity [4]: selective vasodilator activity at certain concentrations

Compound: CCCCc1ccc(C(=O)O)nc1 [Fusaric acid]
- hepatotoxicity [5]: hepatotoxic

Compound: NNCc1ccccc1 [benzylhydrazine]
- DBH inhibition (in words) (DBH [1]): apparently act as competitive inhibitors

Compound: phenylpicolinic acid
- DBH inhibitory activity relative to fusaric acid (DBH [1]; Runti et al.): twice the inhibitory activity of fusaric acid

— US4798843A, “2-mercaproimidazole dopamine-β-hydroxylase inhibitors” (SmithKline Beckman Corporation, priority 1987, dated 1989)
